For 36 compounds, IC50 results are on record in US20070021434A1, “NON-NUCLEOSIDE ANTI-HEPACIVIRUS AGENTS AND USES THEREOF” (Migenix Inc., priority 2005, published 2007).

The target in this assay is HCV RdRp (NS5B) (UniProt P26663). It counts as biochemical, hepatitis C virus.
Chain of HCV RdRp (NS5B) (P26663 whole entry, looked up): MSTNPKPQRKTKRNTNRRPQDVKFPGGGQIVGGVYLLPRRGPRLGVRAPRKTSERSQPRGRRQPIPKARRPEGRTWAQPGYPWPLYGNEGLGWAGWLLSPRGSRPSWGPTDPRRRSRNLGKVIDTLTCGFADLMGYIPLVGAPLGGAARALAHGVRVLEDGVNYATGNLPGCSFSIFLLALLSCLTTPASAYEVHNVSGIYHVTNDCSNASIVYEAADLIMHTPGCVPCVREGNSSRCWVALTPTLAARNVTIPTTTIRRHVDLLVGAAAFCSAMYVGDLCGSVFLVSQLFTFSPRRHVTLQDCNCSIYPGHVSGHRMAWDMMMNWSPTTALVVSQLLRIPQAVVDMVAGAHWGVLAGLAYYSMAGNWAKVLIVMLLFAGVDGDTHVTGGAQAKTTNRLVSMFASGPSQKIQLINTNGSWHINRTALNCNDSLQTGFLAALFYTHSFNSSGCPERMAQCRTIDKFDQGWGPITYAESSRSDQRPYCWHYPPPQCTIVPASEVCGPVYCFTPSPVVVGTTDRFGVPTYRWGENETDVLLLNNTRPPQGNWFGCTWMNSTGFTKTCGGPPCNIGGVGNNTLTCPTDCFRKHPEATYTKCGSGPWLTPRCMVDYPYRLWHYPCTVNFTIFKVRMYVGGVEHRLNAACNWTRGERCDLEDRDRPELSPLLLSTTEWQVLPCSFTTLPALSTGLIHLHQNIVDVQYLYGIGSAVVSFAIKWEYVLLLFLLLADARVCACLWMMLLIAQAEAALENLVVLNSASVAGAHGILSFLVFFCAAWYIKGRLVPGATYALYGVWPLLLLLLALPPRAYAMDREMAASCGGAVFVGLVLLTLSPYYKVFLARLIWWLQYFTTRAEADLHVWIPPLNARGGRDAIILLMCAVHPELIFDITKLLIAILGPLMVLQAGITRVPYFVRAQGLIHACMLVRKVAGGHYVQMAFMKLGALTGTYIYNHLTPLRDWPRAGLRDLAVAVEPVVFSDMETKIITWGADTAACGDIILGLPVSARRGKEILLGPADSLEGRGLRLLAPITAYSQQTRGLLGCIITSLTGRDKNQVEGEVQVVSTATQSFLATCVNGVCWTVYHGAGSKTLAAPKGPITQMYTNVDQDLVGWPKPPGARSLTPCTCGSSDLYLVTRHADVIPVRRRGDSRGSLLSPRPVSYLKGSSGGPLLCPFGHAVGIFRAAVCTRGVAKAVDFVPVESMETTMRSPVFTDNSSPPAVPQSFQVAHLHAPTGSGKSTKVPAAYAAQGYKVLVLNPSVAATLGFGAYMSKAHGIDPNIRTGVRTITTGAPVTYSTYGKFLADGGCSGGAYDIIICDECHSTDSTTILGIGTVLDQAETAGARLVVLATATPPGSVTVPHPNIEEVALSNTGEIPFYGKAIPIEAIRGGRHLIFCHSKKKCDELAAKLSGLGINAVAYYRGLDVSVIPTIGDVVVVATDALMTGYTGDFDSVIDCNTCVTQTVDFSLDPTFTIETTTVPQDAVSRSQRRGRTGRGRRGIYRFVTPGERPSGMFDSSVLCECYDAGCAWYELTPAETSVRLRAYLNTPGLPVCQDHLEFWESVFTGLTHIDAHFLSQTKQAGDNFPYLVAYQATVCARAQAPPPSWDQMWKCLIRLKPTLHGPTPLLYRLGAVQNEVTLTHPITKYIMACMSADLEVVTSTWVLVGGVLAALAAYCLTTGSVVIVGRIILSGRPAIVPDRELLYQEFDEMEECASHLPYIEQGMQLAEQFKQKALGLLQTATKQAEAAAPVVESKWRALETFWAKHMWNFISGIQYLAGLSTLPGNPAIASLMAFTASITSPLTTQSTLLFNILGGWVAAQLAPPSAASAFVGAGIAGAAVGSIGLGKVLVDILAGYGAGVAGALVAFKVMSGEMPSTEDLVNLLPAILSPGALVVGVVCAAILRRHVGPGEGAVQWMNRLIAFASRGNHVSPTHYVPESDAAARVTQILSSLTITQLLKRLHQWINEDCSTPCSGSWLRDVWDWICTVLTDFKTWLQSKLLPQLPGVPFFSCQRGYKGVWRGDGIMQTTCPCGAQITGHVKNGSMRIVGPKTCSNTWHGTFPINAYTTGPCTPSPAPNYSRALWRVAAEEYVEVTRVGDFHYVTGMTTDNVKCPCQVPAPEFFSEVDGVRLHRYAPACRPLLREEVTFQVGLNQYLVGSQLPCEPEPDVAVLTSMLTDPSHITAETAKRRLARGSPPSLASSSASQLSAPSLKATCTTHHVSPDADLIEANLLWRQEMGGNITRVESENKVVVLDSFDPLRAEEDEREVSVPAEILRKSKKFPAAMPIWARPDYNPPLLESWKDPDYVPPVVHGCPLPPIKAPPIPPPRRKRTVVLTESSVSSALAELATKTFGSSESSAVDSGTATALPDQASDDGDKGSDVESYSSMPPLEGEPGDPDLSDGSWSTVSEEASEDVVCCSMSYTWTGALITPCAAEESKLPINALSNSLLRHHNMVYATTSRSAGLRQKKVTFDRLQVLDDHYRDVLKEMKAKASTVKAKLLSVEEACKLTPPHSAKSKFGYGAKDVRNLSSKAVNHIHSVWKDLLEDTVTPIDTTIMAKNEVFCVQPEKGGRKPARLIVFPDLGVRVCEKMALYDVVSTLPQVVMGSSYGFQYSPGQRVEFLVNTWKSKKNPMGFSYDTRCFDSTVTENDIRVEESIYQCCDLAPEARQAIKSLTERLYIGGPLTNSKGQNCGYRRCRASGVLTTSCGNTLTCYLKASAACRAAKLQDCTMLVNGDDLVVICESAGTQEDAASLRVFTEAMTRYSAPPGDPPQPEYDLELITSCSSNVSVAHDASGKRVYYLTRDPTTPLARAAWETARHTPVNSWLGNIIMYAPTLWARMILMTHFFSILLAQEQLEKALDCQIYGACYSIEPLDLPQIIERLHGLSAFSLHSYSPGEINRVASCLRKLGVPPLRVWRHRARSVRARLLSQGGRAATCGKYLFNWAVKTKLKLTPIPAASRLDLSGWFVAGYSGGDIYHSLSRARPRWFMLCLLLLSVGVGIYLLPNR
Take `O=C(CC1CNCCN1C(=O)NCc1ccc(Cl)c(Cl)c1)Nc1ccc(C2CCCCC2)cc1` (stereo not drawn) [Compound 160, 2-[(4-CYCLOHEXYL-PHENYLCARBAMOYL)-METHYL]-PIPERAZINE-1-CARBOXYLIC ACID 3,4-DICHLORO-BENZYLAMIDE]: the IC50 (usually the midpoint of a concentration-inhibition curve) was in the range of 10 to 50 µM.

As for `O=C(CC1CNCCN1C(=O)Nc1ccc(-c2ccccc2)cc1)Nc1ccc(C2CCCCC2)cc1` (stereo not drawn) [Compound 161, 2-[(4-CYCLOHEXYL-PHENYLCARBAMOYL)-METHYL]-PIPERAZINE-1-CARBOXYLIC ACID BIPHENYL-4-YLAMIDE], the IC50 fell in the range of 10 to 50 µM. `O=C(CC1CNCCN1C(=O)Nc1ccc2c(c1)Cc1ccccc1-2)Nc1ccc(C2CCCCC2)cc1` (stereo not drawn) [Compound 162, 2-[(4-CYCLOHEXYL-PHENYLCARBAMOYL)-METHYL]-PIPERAZINE-1-CARBOXYLIC ACID (9H-FLUOREN-2-YL)-AMIDE]: the half-inhibitory concentration (IC50) is 10 to 50 µM.

Compound `NCCCC[C@@H](NC(=O)NCc1ccc(Cl)cc1)C(=O)Nc1ccc(C2CCCCC2)cc1` [Compound 164, (R)-6-AMINO-2-[3-(4-CHLORO-BENZYL)-UREIDO]-HEXANOIC ACID (4-CYCLOHEXYL-PHENYL)-AMIDE] came in with a concentration for half-maximal inhibition (IC50) of less than 10 µM. As for `NCCCC[C@@H](NC(=O)NCc1ccc(Cl)c(Cl)c1)C(=O)Nc1ccc(C2CCCCC2)cc1` [Compound 165, (R)-6-AMINO-2-[3-(3,4-DICHLORO-BENZYL)-UREIDO]-HEXANOIC ACID (4-CYCLOHEXYL-PHENYL)-AMIDE], the figure is 10 to 50 µM; as for `Cc1ccc(NC(=O)[C@H](CCCCN)NC(=O)NCc2ccc(Cl)cc2)cc1` [Compound 167, (S)-6-AMINO-2-[3-(4-CHLORO-BENZYL)-UREIDO]-HEXANOIC ACID P-TOLYLAMIDE], more than 50 µM. As for `Cc1ccc(NC(=O)C(CCCCN)NC(=O)NCc2ccccc2)cc1` [Compound 168, (R)-6-AMINO-2-(3-BENZYL-UREIDO)-HEXANOIC ACID P-TOLYLAMIDE], the figure is more than 50 µM. As for `Cc1ccc(NC(=O)[C@@H](CCCCN)NC(=O)NCc2ccc(Cl)cc2)cc1` [Compound 169, (R)-6-AMINO-2-[3-(4-CHLORO-BENZYL)-UREIDO]-HEXANOIC ACID P-TOLYLAMIDE], the figure is more than 50 µM; as for `Cc1ccc(NC(=O)[C@@H](CCCCN)NC(=O)NCc2ccc(Cl)c(Cl)c2)cc1` [Compound 170, (R)-6-AMINO-2-[3-(3,4-DICHLORO-BENZYL)-UREIDO]-HEXANOIC ACID P-TOLYLAMIDE], more than 50 µM. `Cc1ccc(NC(=O)C(CCCCN)NC(=O)Nc2ccc(-c3ccccc3)cc2)cc1` [Compound 171, (R)-6-AMINO-2-(3-BIPHENYL-4-YL-UREIDO)-HEXANOIC ACID P-TOLYLAMIDE] yielded a 50% inhibitory concentration (IC50) of 10 to 50 µM.

Consider `CC(C)(C)c1ccc(NC(=O)[C@H](Cc2ccc(CN)cc2)NC(=O)Nc2ccc(OCc3ccccc3)cc2)cc1` [Compound 174, (S)-3-(4-AMINOMETHYL-PHENYL)-2-[3-(4-BENZYLOXY-PHENYL)-UREIDO]-N-(4-TERT-BUTYL-PHENYL)-PROPIONAMIDE], for which the IC50 was less than 10 µM. As for `Cc1ccc(NC(=O)C(Cc2ccc(CN)cc2)NC(=O)OCC2c3ccccc3-c3ccccc32)cc1` [Compound 175, (R)-[2-(4-AMINOMETHYL-PHENYL)-1-P-TOLYLCARBAMOYL-ETHYL]-CARBAMIC ACID 9H-FLUOREN-9-YLMETHYL ESTER], the figure is less than 10 µM.

In the case of `Cc1ccc(NC(=O)C(CCCCNC(=O)CN)NC(=O)OCC2c3ccccc3-c3ccccc32)cc1` [Compound 176, (S)-[5-(2-AMINO-ACETYLAMINO)-1-P-TOLYLCARBAMOYL-PENTYL]-CARBAMIC ACID 9H-FLUOREN-9-YLMETHYL ESTER], the half-inhibitory concentration (IC50) is less than 10 µM.

Turning to `Cc1ccc(NC(=O)C(CCCNC(=O)CN)NC(=O)OCC2c3ccccc3-c3ccccc32)cc1` [Compound 177, (S)-[4-(2-AMINO-ACETYLAMINO)-1-P-TOLYLCARBAMOYL-BUTYL]-CARBAMIC ACID 9H-FLUOREN-9-YLMETHYL ESTER], the IC50 was less than 10 µM. As for `Cc1ccc(NC(=O)C(CNC(=O)CCN)NC(=O)OCC2c3ccccc3-c3ccccc32)cc1` [Compound 178, (S)-[2-(3-AMINO-PROPIONYLAMINO)-1-P-TOLYLCARBAMOYL-ETHYL]-CARBAMIC ACID 9H-FLUOREN-9-YLMETHYL ESTER], the figure is 10 to 50 µM; as for `Cc1ccc(NC(=O)C(CCNC(=O)CCN)NC(=O)OCC2c3ccccc3-c3ccccc32)cc1` [Compound 179, (S)-[3-(3-AMINO-PROPIONYLAMINO)-1-P-TOLYLCARBAMOYL-PROPYL]-CARBAMIC ACID 9H-FLUOREN-9-YLMETHYL ESTER], 10 to 50 µM; as for `Cc1ccc(NC(=O)C(Cc2ccc(N)cc2)NC(=O)OCC2c3ccccc3-c3ccccc32)cc1` [Compound 180, (S)-[2-(4-AMINO-PHENYL)-1-P-TOLYLCARBAMOYL-ETHYL]-CARBAMIC ACID 9H-FLUOREN-9-YLMETHYL ESTER], more than 50 µM.

`CC(=O)NCCCCC(NC(=O)OCC1c2ccccc2-c2ccccc21)C(=O)Nc1ccc(C)cc1` [Compound 181, (S)-(5-ACETYLAMINO-1-P-TOLYLCARBAMOYL-PENTYL)-CARBAMIC ACID 9H-FLUOREN-9-YLMETHYL ESTER]: the IC50 is more than 50 µM. As for `Cc1ccc(NC(=O)CC2CN(C(=O)CCN)CCN2C(=O)OCC2c3ccccc3-c3ccccc32)cc1` (stereo not drawn) [Compound 183, 4-(3-AMINO-PROPIONYL)-2-(P-TOLYLCARBAMOYL-METHYL)-PIPERAZINE-1-CARBOXYLIC ACID 9H-FLUOREN-9-YLMETHYL ESTER], the figure is more than 50 µM.

On to `Cc1ccc(NC(=O)CC2CN(C(=O)C(C)N)CCN2C(=O)OCC2c3ccccc3-c3ccccc32)cc1` [Compound 184, 4-((S)-2-AMINO-PROPIONYL)-2-(P-TOLYLCARBAMOYL-METHYL)-PIPERAZINE-1-CARBOXYLIC ACID 9H-FLUOREN-9-YLMETHYL ESTER], for which the 50% inhibitory concentration (IC50) was more than 50 µM. To `Cc1ccc(NC(=O)CC2CN(C(=O)C(C)N)CCN2C(=O)OCC2c3ccccc3-c3ccccc32)cc1` (stereo not drawn) [Compound 185, 4-(R-2-AMINO-PROPIONYL)-2-(P-TOLYLCARBAMOYL-METHYL)-PIPERAZINE-1-CARBOXYLIC ACID 9H-FLUOREN-9-YLMETHYL ESTER] belongs more than 50 µM; to `CC(=O)NCC(=O)N1CCN(C(=O)OCC2c3ccccc3-c3ccccc32)C(CC(=O)Nc2ccc(C)cc2)C1` (stereo not drawn) [Compound 186, 4-(2-ACETYLAMINO-ACETYL)-2-(P-TOLYLCARBAMOYL-METHYL)-PIPERAZINE-1-CARBOXYLIC ACID 9H-FLUOREN-9-YLMETHYL ESTER], more than 50 µM; to `CCNCC(=O)N1CCN(C(=O)OCC2c3ccccc3-c3ccccc32)C(CC(=O)Nc2ccc(C)cc2)C1` (stereo not drawn) [Compound 187, 4-(2-ETHYLAMINO-ACETYL)-2-(P-TOLYLCARBAMOYL-METHYL)-PIPERAZINE-1-CARBOXYLIC ACID 9H-FLUOREN-9-YLMETHYL ESTER], 10 to 50 µM. To `Cc1ccc(NC(=O)C(CCCN)NC(=O)Nc2ccc(-c3ccccc3)cc2)cc1` [Compound 188, (S)-5-AMINO-2-(3-BIPHENYL-4-YL-UREIDO)-PENTANOIC ACID P-TOLYLAMIDE] belongs more than 50 µM; to `Cc1ccc(NC(=O)[C@H](CCCN)NC(=O)Nc2ccc(OCc3ccccc3)cc2)cc1` [Compound 189, (S)-5-AMINO-2-[3-(4-BENZYLOXY-PHENYL)-UREIDO]-PENTANOIC ACID P-TOLYLAMIDE], more than 50 µM; to `Cc1ccc(NC(=O)[C@H](CCCN)NC(=O)Nc2ccc3c(c2)Cc2ccccc2-3)cc1` [Compound 190, (S)-5-AMINO-2-[3-(9H-FLUOREN-2-YL)-UREIDO]-PENTANOIC ACID P-TOLYLAMIDE], less than 10 µM. As for `Cc1ccc(NC(=O)C(CCCN)NC(=O)Nc2ccc(-c3ccccc3)cc2)cc1` [Compound 191, (R)-5-AMINO-2-(3-BIPHENYL-4-YL-UREIDO)-PENTANOIC ACID P-TOLYLAMIDE], the figure is more than 50 µM. `Cc1ccc(NC(=O)[C@@H](CCCN)NC(=O)Nc2ccc(OCc3ccccc3)cc2)cc1` [Compound 192, (R)-5-AMINO-2-[3-(4-BENZYLOXY-PHENYL)-UREIDO]-PENTANOIC ACID P-TOLYLAMIDE] showed an IC50 of more than 50 µM. As for `Cc1ccc(NC(=O)[C@@H](CCCN)NC(=O)Nc2ccc3c(c2)Cc2ccccc2-3)cc1` [Compound 193, (R)-5-AMINO-2-[3-(9H-FLUOREN-2-YL)-UREIDO]-PENTANOIC ACID P-TOLYLAMIDE], the figure is less than 10 µM; as for `Cc1ccc(NC(=O)[C@H](CCCCN)NC(=O)Nc2ccc(O)cc2)cc1` [Compound 194, (S)-6-AMINO-2-[3-(4-HYDROXY-PHENYL)-UREIDO]-HEXANOIC ACID P-TOLYLAMIDE], more than 50 µM. As for `NCCCC[C@@H](NC(=O)NC1c2ccccc2-c2ccccc21)C(=O)Nc1ccc(C2CCCCC2)cc1` [Compound 195, (R)-6-AMINO-2-[3-(9H-FLUOREN-9-YL)-UREIDO]-HEXANOIC ACID (4-CYCLOHEXYL-PHENYL)-AMIDE], the figure is less than 10 µM; as for `Cc1ccc(NC(=O)[C@H](CCCCN)NC(=O)Nc2ccc(OCc3ccc([N+](=O)[O-])cc3)cc2)cc1` [Compound 196, (S)-6-AMINO-2-{3-[4-(4-NITRO-BENZYLOXY)-PHENYL]-UREIDO}-HEXANOIC ACID P-TOLYLAMIDE], 10 to 50 µM. To `Cc1ccc(NC(=O)CC2CNCCN2C(=O)OCC2c3ccccc3-c3ccccc32)cc1` (stereo not drawn) [Compound 197, 2-(P-TOLYLCARBAMOYL-METHYL)-PIPERAZINE-1-CARBOXYLIC ACID 9H-FLUOREN-9-YLMETHYL ESTER] belongs more than 50 µM; to `NCCC[C@@H](NC(=O)OCC1c2ccccc2-c2ccccc21)C(=O)Nc1ccc(C2CCCCC2)cc1` [Compound 198, (R)-[4-AMINO-1-(4-CYCLOHEXYL-PHENYLCARBAMOYL)-BUTYL]-CARBAMIC ACID 9H-FLUOREN-9-YLMETHYL ESTER], less than 10 µM; to `NCCC[C@H](NC(=O)OCC1c2ccccc2-c2ccccc21)C(=O)Nc1ccc(C2CCCCC2)cc1` [Compound 200, (S)-[4-AMINO-1-(4-CYCLOHEXYL-PHENYLCARBAMOYL)-BUTYL]-CARBAMIC ACID 9H-FLUOREN-9-YLMETHYL ESTER], less than 10 µM.

In turn, `NCCC[C@@H](NC(=O)Nc1ccc(-c2ccccc2)cc1)C(=O)Nc1ccc(C2CCCCC2)cc1` [Compound 201, (R)-5-AMINO-2-(3-BIPHENYL-4-YL-UREIDO)-PENTANOIC ACID (4-CYCLOHEXYL-PHENYL)-AMIDE] yielded an IC50 of less than 10 µM.
